According to ChEMBL document CHEMBL3272338, “Bis-basic-substituted polycyclic aromatic compounds. A new class of antiviral agents. 8. Bis-basic derivatives of carbazole, dibenzofuran, and dibenzothiophene” (1977):

How the values were obtained:
Format in all cases: functional
[1] = system: Encephalomyocarditis virus; test: Antiviral activity against Encephalomyocarditis virus infected in CF-1 mouse assessed as host survival time ratio at 250 mg/kg, po administered via gavage as single dose at 22 to 28 hrs before virus inoculation
[2] = system: Encephalomyocarditis virus; test: Antiviral activity against Encephalomyocarditis virus infected in CF-1 mouse assessed as host survival time ratio at 10 mg/kg, sc administered 28, 22, 2 hrs before and 2 hrs after virus inoculation; conditions: route subcutaneous
[3] = system: Encephalomyocarditis virus; test: Antiviral activity against Encephalomyocarditis virus infected in CF-1 mouse assessed as host survival time ratio at 250 mg/kg, sc administered 28, 22, 2 hrs before and 2 hrs after virus inoculation; conditions: route subcutaneous
[4] = system: Encephalomyocarditis virus; test: Antiviral activity against Encephalomyocarditis virus infected in CF-1 mouse assessed as host survival time ratio at 50 mg/kg, po administered via gavage at 28, 22, 2 hrs before and 2 hrs after virus inoculation
[5] = system: Encephalomyocarditis virus; test: Antiviral activity against Encephalomyocarditis virus infected in CF-1 mouse assessed as host survival time ratio at 50 mg/kg, sc administered 28, 22, 2 hrs before and 2 hrs after virus inoculation; conditions: route subcutaneous

| SMILES | Ratio [1] | Ratio [2] | Ratio [3] | Ratio [4] | Ratio [5] |
| --- | --- | --- | --- | --- | --- |
| CCn1c2ccc(C(=O)CCCN3CCCCC3)cc2c2cc(C(=O)CCCN3CCCCC3)ccc21.Cl | 1.2 | 1.68 | 0.56 | 1.09 | 1.58 |
| O=C(CCCN1CCCCC1)c1ccc2[nH]c3ccc(C(=O)CCCN4CCCCC4)cc3c2c1 | 0.88 | 1.22 | 1 | 0.86 | 0.96 |
| CCN(CC)CCCCc1ccc2c(c1)c1cc(CCCCN(CC)CC)ccc1n2CC.Cl | 1.17 | 1.22 |  | 0.98 | 1.22 |
| CCN(CC)CC(=O)c1ccc2oc3ccc(C(=O)CN(CC)CC)cc3c2c1.Cl | 1.65 | 0.96 | 2.17 | 0.96 | 1.35 |
| CC(C)CCN(CCCOC(=O)c1ccc2oc3ccc(C(=O)OCCCN(CCC(C)C)CCC(C)C)cc3c2c1)CCC(C)C |  | 0.91 | 1.11 |  | 1.07 |
| CCCN(CCC)CCCOC(=O)c1ccc2oc3ccc(C(=O)OCCCN(CCC)CCC)cc3c2c1.Cl |  | 0.96 | 1.88 |  | 1.21 |
| CC1CCN(CCCC(=O)c2ccc3oc4ccc(C(=O)CCCN5CCC(C)CC5)cc4c3c2)CC1 | 1.19 | 1.23 | 2.04 | 1.11 | 2.13 |
| CC(C)N(CCOc1ccc2oc3ccc(OCCN(C(C)C)C(C)C)cc3c2c1)C(C)C | 0.88 | 0.88 | 1.14 | 0.96 | 1.24 |
| Cl.O=C(OCCCN1CCCCC1)c1ccc2c(c1)sc1ccc(C(=O)OCCCN3CCCCC3)cc12 |  | 1.4 | 1.55 |  | 1.36 |
| CCCCN(CCCC)CCCOC(=O)c1ccc2oc3ccc(C(=O)OCCCN(CCCC)CCCC)cc3c2c1.Cl |  | 1.06 | 1.6 |  | 1.4 |
| Cl.c1cc2oc3ccc(OCCN4CCCC4)cc3c2cc1OCCN1CCCC1 | 1 | 1.08 | 0.88 | 0.98 | 1.04 |
| Cl.O=C(OCCCN1CCCCC1)c1ccc2oc3ccc(C(=O)OCCCN4CCCCC4)cc3c2c1 | 1.02 | 1.11 | 0.91 | 0.96 | 1.22 |
| Cl.O=C(CCCN1CCOCC1)c1ccc2c(c1)sc1ccc(C(=O)CCCN3CCOCC3)cc12 | 0.94 | 1.13 | 1.98 | 0.9 | 1.33 |
| CCN(CC)CCOc1ccc2oc3ccc(OCCN(CC)CC)cc3c2c1.Cl | 1.02 | 1.21 | 0.91 | 1.17 | 1.31 |
| Cl.c1cc2sc3ccc(OCCN4CCCCC4)cc3c2cc1OCCN1CCCCC1 | 1.02 | 1.09 | 1.3 | 0.98 | 1.57 |
| CC(C)N(CCOc1ccc2sc3ccc(OCCN(C(C)C)C(C)C)cc3c2c1)C(C)C.Cl | 1 | 1.24 | 1.2 | 1.18 | 1.3 |
| CCN(CC)CCOC(=O)c1ccc2oc3ccc(C(=O)OCCN(CC)CC)cc3c2c1.Cl | 0.98 | 1 | 1.09 | 1.02 | 1.02 |
| Cl.c1cc2oc3ccc(OCCCN4CCCCC4)cc3c2cc1OCCCN1CCCCC1 | 1.02 | 1.46 | 0.63 | 1.02 | 1.44 |
| CN(C)CCCOC(=O)c1ccc2oc3ccc(C(=O)OCCCN(C)C)cc3c2c1.Cl | 1.07 | 1.19 | 1.36 | 1.07 | 1.26 |
| Cl.c1cc2oc3ccc(OCCN4CCCCC4)cc3c2cc1OCCN1CCCCC1 | 1.04 | 0.94 | 1.02 | 0.85 | 1.25 |
| CCCCN(CCCC)CCCOc1ccc2sc3ccc(OCCCN(CCCC)CCCC)cc3c2c1.Cl | 0.88 | 0.88 | 0.96 | 0.9 | 1.14 |
| CCN(CC)CCOC(=O)c1ccc2c(c1)sc1ccc(C(=O)OCCN(CC)CC)cc12.Cl |  | 1.14 | 1.2 |  | 1.04 |
| CCn1c2ccc(OCCN3CCOCC3)cc2c2cc(OCCN3CCOCC3)ccc21 | 0.88 | 0.92 | 1.02 | 0.86 | 1.08 |

| SMILES | Ratio [1] | Ratio [2] | Ratio [3] | Ratio [4] | Ratio [5] |
| --- | --- | --- | --- | --- | --- |
| CC(CN(C)C)Oc1ccc2oc3ccc(OC(C)CN(C)C)cc3c2c1.O=C(O)CC(O)(CC(=O)O)C(=O)O (stereo unspecified) | 0.84 | 0.94 | 0.9 | 0.84 | 1.08 |
| O=C(CCCN1CCCCC1)c1ccc2sc3ccc(C(=O)CCCN4CCCCC4)cc3c2c1 | 1.22 | 1.1 | 0.61 | 1.16 | 1.9 |
| CCN(CC)CCCOC(=O)c1ccc2[nH]c3ccc(C(=O)OCCCN(CC)CC)cc3c2c1.Cl | 1.17 | 1.04 | 1.47 | 1.1 | 1.69 |
| CC(COc1ccc2sc3ccc(OCC(C)CN(C)C)cc3c2c1)CN(C)C.Cl (stereo unspecified) | 0.94 | 0.96 | 0.84 | 1.04 | 1.08 |
| CCn1c2ccc(OCCN3CCCCC3)cc2c2cc(OCCN3CCCCC3)ccc21.Cl | 1.09 | 1.16 | 1.25 | 1.09 | 1.32 |
| O=C(CCCN1CCCCC1)c1ccc2oc3ccc(C(=O)CCCN4CCCCC4)cc3c2c1 | 1.19 |  | 1.81 | 1.06 | 1.49 |
| O=C(CCCN1CCCCC1)c1ccc2c(c1)sc1ccc(C(=O)CCCN3CCCCC3)cc12 | 1.23 | 1.21 | 2.08 | 1.1 | 1.71 |
| CCN(CC)CCOc1ccc2sc3ccc(OCCN(CC)CC)cc3c2c1.O=C(O)/C=C/C(=O)O | 0.86 | 0.96 | 1.32 | 0.88 | 1.12 |
| CCN(CC)CCCOC(=O)c1ccc2c(c1)c1cc(C(=O)OCCCN(CC)CC)ccc1n2CC.Cl | 0.75 | 1.33 | 1.87 |  | 1.74 |
| CC1CCCN(COC(=O)c2ccc3oc4ccc(C(=O)OCN5CCCC(C)C5)cc4c3c2)C1.Cl (stereo unspecified) | 1 | 1.07 | 1.05 | 1.03 | 1.07 |
| CCN(CC)CCCOC(=O)c1ccc2sc3ccc(C(=O)OCCCN(CC)CC)cc3c2c1.Cl |  |  | 1.3 |  | 1.77 |
| CCCCN(CCCC)CCCOC(=O)c1ccc2sc3ccc(C(=O)OCCCN(CCCC)CCCC)cc3c2c1.Cl | 0.93 | 1.29 | 2.43 | 0.93 | 1.48 |
| CCCCN(CCCC)CCCNC(=O)c1ccc2oc3ccc(C(=O)NCCCN(CCCC)CCCC)cc3c2c1.O=C(O)CC(O)(CC(=O)O)C(=O)O |  | 1.17 | 0.85 |  | 1.24 |
| CC(COc1ccc2oc3ccc(OCC(C)CN(C)C)cc3c2c1)CN(C)C.Cl (stereo unspecified) | 0.92 | 1.2 | 0.57 | 0.9 | 1.14 |
| CN(C)CCCCC(C)(C)COC(=O)c1ccc2c(c1)sc1ccc(C(=O)OCC(C)(C)CCCN(C)C)cc12.Cl |  | 1.07 | 1.11 |  | 1.42 |
| CN(C)CCCC(=O)c1ccc2sc3ccc(C(=O)CCCN(C)C)cc3c2c1.Cl | 0.95 | 1.09 | 1.09 | 1 | 1.66 |
| C=CCN(CC=C)CCCOC(=O)c1ccc2oc3ccc(C(=O)OCCCN(CC=C)CC=C)cc3c2c1.Cl |  | 1.11 | 1.33 |  | 1.2 |
| CCn1c2ccc(C(=O)CCCN(C)C)cc2c2cc(C(=O)CCCN(C)C)ccc21.O=C(O)/C=C/C(=O)O | 1.06 | 1.42 | 1.44 | 0.94 | 1.63 |
| CC(C)CCN(CCCOC(=O)c1ccc2c(c1)sc1ccc(C(=O)OCCCN(CCC(C)C)CCC(C)C)cc12)CCC(C)C.Cl |  | 0.96 | 1.11 |  | 0.98 |
| CCn1c2ccc(CCCCN3CCCCC3)cc2c2cc(CCCCN3CCCCC3)ccc21.Cl |  | 1.28 | 0.57 |  | 1.45 |
| O=C(CCCN1CCOCC1)c1ccc2oc3ccc(C(=O)CCCN4CCOCC4)cc3c2c1 | 1.08 | 1 | 1.96 | 1.08 | 1.39 |
| CCN(CC)CCCOC(=O)c1ccc2oc3ccc(C(=O)OCCCN(CC)CC)cc3c2c1.Cl |  |  | 1.22 |  | 1.19 |
| CN(C)CCCOc1ccc2oc3ccc(OCCCN(C)C)cc3c2c1.Cl | 0.88 | 0.92 | 0.66 | 0.92 | 1.24 |
